According to US20080255031A1, “METHOD FOR ENHANCING INSULIN SECRETION” (priority 2007, published 2008):
Converted amounts (≈) assume the structure as drawn. Where two headings read alike, the source gives them in different places.

Legend:
IKs [1] = conditions: Zygmunt et al. (2002); read-out: IC50 value (current not named); cited from earlier work
IKr [2] = target: T1, IKr (Canis lupus familiaris, UniProt Q9TSZ3); design: Whole cell currents were recorded from isolated canine left ventricular midmyocrdial cells; endogenous in cells; host or cells: isolated canine left ventricular midmyocardial cells; conditions: Zygmunt et al. (2002); cited from earlier work
T1 sequence (Q9TSZ3 1-1158): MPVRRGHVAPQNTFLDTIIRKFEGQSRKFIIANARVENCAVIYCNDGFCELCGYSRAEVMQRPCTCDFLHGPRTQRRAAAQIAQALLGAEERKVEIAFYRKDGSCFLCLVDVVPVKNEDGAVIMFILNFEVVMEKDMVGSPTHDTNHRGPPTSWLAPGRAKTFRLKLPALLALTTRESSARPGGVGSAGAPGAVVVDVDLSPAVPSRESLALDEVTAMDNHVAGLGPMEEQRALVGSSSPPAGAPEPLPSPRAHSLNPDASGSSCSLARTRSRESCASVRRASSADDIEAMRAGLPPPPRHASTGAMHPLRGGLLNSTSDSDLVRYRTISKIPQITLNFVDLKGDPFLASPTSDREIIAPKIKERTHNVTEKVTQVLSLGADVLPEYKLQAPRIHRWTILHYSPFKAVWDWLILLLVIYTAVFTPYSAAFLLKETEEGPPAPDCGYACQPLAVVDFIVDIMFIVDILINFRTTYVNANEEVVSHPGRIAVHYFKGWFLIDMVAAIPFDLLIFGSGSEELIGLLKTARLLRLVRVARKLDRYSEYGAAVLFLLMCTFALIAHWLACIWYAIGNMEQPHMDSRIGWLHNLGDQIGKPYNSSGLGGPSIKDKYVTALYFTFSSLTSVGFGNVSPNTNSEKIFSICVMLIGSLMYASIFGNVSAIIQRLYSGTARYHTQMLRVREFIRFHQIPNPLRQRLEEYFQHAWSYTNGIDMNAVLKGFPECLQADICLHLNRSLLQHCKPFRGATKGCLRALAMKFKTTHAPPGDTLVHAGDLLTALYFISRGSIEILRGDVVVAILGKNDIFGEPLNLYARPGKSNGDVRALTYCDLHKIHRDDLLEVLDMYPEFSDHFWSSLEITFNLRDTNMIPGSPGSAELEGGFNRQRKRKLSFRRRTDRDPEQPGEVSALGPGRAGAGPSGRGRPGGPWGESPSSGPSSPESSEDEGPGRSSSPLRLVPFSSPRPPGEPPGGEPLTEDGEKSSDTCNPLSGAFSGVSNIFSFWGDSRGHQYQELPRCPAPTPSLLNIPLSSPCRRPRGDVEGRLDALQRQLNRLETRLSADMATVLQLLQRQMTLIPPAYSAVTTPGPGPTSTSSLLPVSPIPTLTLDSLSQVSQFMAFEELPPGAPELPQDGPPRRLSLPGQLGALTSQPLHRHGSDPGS

[3] = patients; U.S. Patent Publication No. 2004/0063717; cited from earlier work
CYP2D6 [4] = target: T2, CYP2D6 (Homo sapiens, UniProt P10635); experiment: biochemical
Procedure: The substrate, buffer and enzyme were pre-warmed at 37° C. The pre-warmed NADPH regenerating system and were then added and the samples gently mixed and incubated for 30 minutes. The effect of ranolazine on the CYP2D6 marker reactions to form 1-hydroxy-bufurolol, and dextrophan was monitored by tandem mass spectrometric assays. A known CYP2D6 inhibitor, quinidine, was included as a positive control. The negative control samples consisted of all components except ranolazine or known inhibitors. Incubations were carried out in duplicate.

[5] = Solubility in aqueous solutions by pH (Table 1); type: physicochemical
[6] = test system: rat isolated pancreatic islets; experiment: Glucose stimulated insulin secretion (GSIS) in rat isolated pancreatic islets; type: cell-based
Procedure: Rat islets were isolated from male Sprague-Dawley (SD) rats (8-12 weeks old, n=6) as described by Yang Z. et al. […] Insulin secretion assay was performed essentially as previously described by Liu D. et al. Steroids 2006, 71, 691-699. […] Insulin secreted in experimental samples was measured by a RIA kit (Mercodia, N.C.). All insulin secretion data in the present study were normalized to insulin secretion per islet. There was a biphasic response for insulin secretion to ranolazine.

CYP2D6 [7] = target: T2, CYP2D6; experiment: Inhibitory effects on CYP2D6 in extensive metabolizers of dextromethorphan; type: in vivo; design: evaluated in extensive metabolizers of dextromethorphan; from tissue; host or cells: in vivo, subjects who are extensive metabolizers
IKs [8] = experiment: Whole cell IKs in isolated canine left ventricular midmyocardial cells; type: cell-based; conditions: 30 μM
Procedure: (§1) Whole cell currents were recorded from isolated canine left ventricular midmyocrdial cells at 37° C. IKr and IKs were recorded during standard pulse protocols. Action potentials recorded at basic cycle lengths (BCL) of 300 and 2000 ms were used as command waveforms during voltage claim to measure late INa. Enantiomeric effects were determined at concentrations of 3, 10, and 30 μM.
(§2) Late INa was evaluated at two voltages during the plateau and final repolarization of an action potential voltage claims.

CYP2D6 [9] = target: T2, CYP2D6; experiment: biochemical; remark: listed apart in the source
Procedure: The incubation mixture contained potassium phosphate, pH 7.2 (final concentration=100 mM), magnesium chloride (5 mM), NADPH (1 mM), CYP2D6-specific marker substrate (bufuralol, 25 μM), (R) or (S)-ranolazine (10, 25, 100, 250, 1000 μM), or known CYP2D6 inhibitor (quinidine, 5 μM), and human liver microsomal (HLM) proteins. All reagents except NADPH were combined and preincubated at 37° C. for 2-3 min. Reactions were initiated by addition of NADPH and incubated 20 minutes. The CYP2D6 marker reaction, bufuralol 1-hydroxylation, was monitored. A known CYP2D6 inhibitor, quinidine, was included as a positive control. The negative control samples consisted of all components but not ranolazine. Incubations were run in triplicate for each condition except for positive controls, which were carried out in duplicate.

IKr [10] = target: T1, IKr; experiment: cell-based
Procedure: as §1, §2

[11] = test system: human isolated pancreatic islets; experiment: GSIS in human isolated pancreatic islets; type: cell-based; conditions: one donor, 30 min incubation (Example 4, FIG. 4)
Procedure: Rat islets were isolated from male Sprague-Dawley (SD) rats (8-12 weeks old, n=6) as described by Yang Z. et al. […] Insulin secretion assay was performed essentially as previously described by Liu D. et al. Steroids 2006, 71, 691-699. […] Insulin secreted in experimental samples was measured by a RIA kit (Mercodia, N.C.). […] The procedure used for the human islets was the same as the procedure used in Example 1 above, except that the incubation period was 30 minutes, instead of the 60 minutes used in Example 1.

T2 sequence (P10635 whole entry): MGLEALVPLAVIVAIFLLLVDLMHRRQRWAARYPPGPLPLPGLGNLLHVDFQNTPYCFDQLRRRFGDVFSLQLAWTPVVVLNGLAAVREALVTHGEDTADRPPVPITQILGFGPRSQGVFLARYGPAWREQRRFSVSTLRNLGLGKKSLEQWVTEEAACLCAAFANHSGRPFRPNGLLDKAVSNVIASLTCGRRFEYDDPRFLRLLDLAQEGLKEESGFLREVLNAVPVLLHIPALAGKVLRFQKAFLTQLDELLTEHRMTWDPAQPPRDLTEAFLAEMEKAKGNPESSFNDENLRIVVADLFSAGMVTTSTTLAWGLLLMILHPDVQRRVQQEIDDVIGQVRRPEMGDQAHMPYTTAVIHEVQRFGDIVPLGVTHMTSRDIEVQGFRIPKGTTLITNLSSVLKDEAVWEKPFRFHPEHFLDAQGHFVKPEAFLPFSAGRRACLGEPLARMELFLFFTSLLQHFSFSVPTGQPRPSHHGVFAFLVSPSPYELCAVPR

COc1ccccc1OCC(O)CN1CCN(CC(=O)Nc2c(C)cccc2C)CC1 (racemic) [ranolazine, (±)-N-(2,6-dimethylphenyl)-4-[2-hydroxy-3-(2-methoxyphenoxy)propyl]-1-piperazine-acetamide]
IC50 (IKs [1]): > 100 µM | IC50 (IKr [2]): 11 µM | HbA1c levels [3]: reduced HbA1c levels | IC50 (CYP2D6 [4]): 324 µM | USP Solubility Class ([5]; Solution pH 4.81): Freely Soluble | USP Solubility Class ([5]; Solution pH 4.89): Soluble | USP Solubility Class ([5]; Solution pH 4.90): Soluble | USP Solubility Class ([5]; Solution pH 5.04): Soluble | USP Solubility Class ([5]; Solution pH 5.35): Sparingly Soluble | USP Solubility Class ([5]; Solution pH 5.82): Slightly soluble | USP Solubility Class ([5]; Solution pH 6.46): Slightly soluble | USP Solubility Class ([5]; Solution pH 6.73): Very slightly soluble | USP Solubility Class ([5]; Solution pH 7.08): Very slightly soluble | USP Solubility Class ([5]; Solution pH 7.59 (unbuffered water)): Very slightly soluble | Solubility ([5]; Solution pH 7.79): 170 µg/mL (≈ 398 µM) | USP Solubility Class ([5]; Solution pH 7.79): Very slightly soluble | USP Solubility Class ([5]; Solution pH 12.66): Very slightly soluble | increase of insulin secretion (GSIS) ([6]; 1 nM to 1 μM, concentration-dependent, 20 mM glucose, 60 min): 2-5 fold | effect on GSIS ([6]; 10 μM, compared with 20 mM glucose alone): no significant effect on GSIS | inhibition of CYP2D6 by ranolazine and/or metabolites (CYP2D6 [7]): partially inhibit CYP2D6

COc1ccccc1OC[C@H](O)CN1CCN(CC(=O)Nc2c(C)cccc2C)CC1 [R-ranolazine, (R)-(+)-N-(2,6-dimethylphenyl)-4-[2-hydroxy-3-(2-methoxyphenoxy)-propyl]-1-piperazineacetamide]
IKs reduced (IKs [8]): 5% | IC50 (CYP2D6 [9]): 430 µM | IC50 (IKr [10]): 28 ± 4 µM | increasing the secretion of insulin in response to glucose [11]: significantly more effective

COc1ccccc1OC[C@@H](O)CN1CCN(CC(=O)Nc2c(C)cccc2C)CC1 [S-ranolazine, (S)-(−)-N-(2,6-dimethylphenyl)-4-[2-hydroxy-3-(2-methoxyphenoxy)-propyl]-1-piperazineacetamide]
IKs reduced (IKs [8]): 27% | IC50 (CYP2D6 [9]): 130 µM | IC50 (IKr [10]): 10 ± 2 µM
